# Test results as given in PubChem BioAssay (NCI).
# “And” between values parts separate entries of the source, which are not always exact repeats. Identical values can stand only once.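 Five concentrations, 48 hours, 96-well plates. Abbreviation: GI50, concentration required for 50% inhibition of growth. TGI marks complete inhibition of growth.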 *1 amine or outer side, *2 acyl side, *3 side chain or, on linkers, in order; H or OH if unused. Where a SMILES comes first, the peptide text is derived from it. Bridges are numbered along the chain shown (N, C = ends). Roman numbers before positions name the chains, in order. [ ]: non-standard residue; d: D form. Actinocin(9to1) = Cc1c2oc3c(C)ccc(C(=O)[*:1])c3nc-2c(C(=O)[*:2])c(N)c1=O; NMeV = CN[CH](C(=O)O)C(C)C; Sar = CNCC(=O)O
# Key:
# Assay in all cases: NCI tumour cell line growth inhibition, 48 h
# MDA-MB-435 = system: MDA-MB-435
# HCT-116 colon = system: HCT-116 colon
# IGROV1 ovarian = system: IGROV1 ovarian
# MDA-MB-231 breast = system: MDA-MB-231 breast
# UO-31 renal = system: UO-31 renal
# NCI-H23 lung = system: NCI-H23 lung
# CCRF-CEM leukemia = system: CCRF-CEM leukemia
# NCI-H226 lung = system: NCI-H226 lung
# RXF 393 renal = system: RXF 393 renal
# NCI-H522 lung = system: NCI-H522 lung
Compound,TGI (MDA-MB-435) [µM],TGI (HCT-116 colon) [µM],TGI (IGROV1 ovarian) [µM],TGI (MDA-MB-231 breast) [µM],TGI (UO-31 renal),TGI (NCI-H23 lung),TGI (CCRF-CEM leukemia) [µM],TGI (NCI-H226 lung),TGI (RXF 393 renal),TGI (NCI-H522 lung) [µM],GI50 (MDA-MB-435) [µM],GI50 (HCT-116 colon) [nM],GI50 (IGROV1 ovarian) [µM],GI50 (MDA-MB-231 breast) [µM],GI50 (UO-31 renal) [µM],GI50 (NCI-H23 lung) [µM],GI50 (CCRF-CEM leukemia) [µM],GI50 (NCI-H226 lung) [µM],GI50 (RXF 393 renal) [µM],GI50 (NCI-H522 lung) [µM]
O=C(c1ccccc1)c1ccc2nc(-c3c(Cl)c(Cl)c(Cl)c(Cl)c3-c3nnc(-c4ccccc4)o3)[nH]c2c1,> 100,> 100,> 100,> 100,> 100 µM,> 100 µM,> 100,97.7 µM,47.1 µM,55.7,,,,,,,,,,
CC1C(NNC(N)=O)Oc2cc3c(cc2C1c1ccccc1O)OCO3 (configuration not stated),48,76.8,86.4,> 100,> 100 µM,> 100 µM,54.5,> 100 µM,84.6 µM,58.6,,,,,,,,,,
CSC(=S)Nc1cc(C)cc(C)n1,> 31.6,> 10,> 100,> 100,> 31.6 µM,> 31.6 µM,> 31.6,> 31.6 µM,> 31.6 µM,> 31.6,,,,,,,,,,
CC(=O)O[C@H]1CC[C@@]2(C)C(=CC[C@@H]3[C@@H]2CC[C@]2(C)C(=N/O)/C(=C\c4ccccc4)C[C@@H]32)C1,> 33.1,> 100,> 100,73.2,> 59.2 µM,> 100 µM,> 100,44.9 µM,40 µM,21.2,,,,,,,,,,
O=C(O)CSc1ccccc1C(=O)O,> 100,> 100,> 100,> 100,> 100 µM,> 100 µM,> 100,> 100 µM,> 100 µM,> 100,,,,,,,,,,
O=C(/C(=C(/O)c1ccccc1)c1nc2ccccc2sc1=O)c1ccccc1,> 100,> 100,> 100,> 100,74.4 µM,68 µM,6.51,72.8 µM,> 100 µM,68,,,,,,,,,,
CN1/C(=C/C=C/C=C/C=C2C(=O)c3ccccc3C2=O)C(C)(C)c2ccccc21,> 100,> 100,> 100,> 100,> 100 µM,> 100 µM,> 100,> 100 µM,81.4 µM,> 100,,,,,,,,,,
COC(=O)C1CC2(C)C=CC1N(C(=O)OCc1ccccc1)C2 (configuration not stated),> 100,> 100,> 100,> 100,> 100 µM,> 100 µM,> 100,> 100 µM,> 100 µM,> 100,,,,,,,,,,
CCOC(=O)/C(C(N)=O)=C(\O)C(=O)/C(Br)=C(\O)c1ccccc1,31.6,32,31.1,34.2,39.6 µM,37.3 µM,3.54,51.6 µM,29.6 µM,3.7,,,,,,,,,,
CCOC(=O)C1CC(C(=O)c2ccccc2)N2c3ccccc3-c3ccccc3C12 (configuration not stated),> 100,> 100,> 100,> 100,> 100 µM,> 100 µM,> 100,> 100 µM,> 100 µM,> 100,,,,,,,,,,
COC(=O)[C@H](Cc1c[nH]c2ccccc12)NP(=O)(OCCC#N)OCC1OC(n2cc(C)c(=O)[nH]c2=O)CC1N=[N+]=[N-] (some centres not stated),> 100,> 100,> 100,> 100,> 100 µM,> 100 µM,> 100,> 100 µM,> 100 µM,> 100,,,,,,,,,,
Cc1cc(-n2nnc(C(=O)O)c2-c2ccccc2)c2ccc(Cl)cc2n1,> 100,> 100,> 100,> 100,> 100 µM,> 100 µM,> 100,> 100 µM,> 100 µM,> 100,,,,,,,,,,
CCOC(=O)c1ccc(Nc2nc3ccccc3nc2-c2cccs2)cc1,> 100,> 100,> 100,> 100,> 100 µM,> 100 µM,> 100,> 100 µM,> 100 µM,80.7,,,,,,,,,,
O=C1NC(=O)c2ccccc2/C1=C/c1ccc2c(c1)OCO2,50.1,22.5,60.9,47.5,32.4 µM,46.8 µM,> 100,> 100 µM,17.4 µM,> 100,,,,,,,,,,
CCN1C/C(=C\c2ccc(Cl)cc2)c2nc(N)c(C#N)c(-c3ccc(Cl)cc3)c2C1,> 100,> 100,> 100,> 100,> 100 µM,> 100 µM,> 100,> 100 µM,> 100 µM,> 100,,,,,,,,,,
COc1cc2cc(C(=O)N3CC(COS(C)(=O)=O)c4ccc(NC(=O)OCc5ccccc5)cc43)[nH]c2c(OC)c1OC (configuration not stated),> 100,> 100,> 100,> 100,> 100 µM,> 100 µM,> 100,> 100 µM,> 100 µM,> 100,,,,,,,,,,
C=C(C(=O)O[C@H]1C/C(C)=C/CC/C(CO)=C/[C@H]2C(=O)OC(=C)[C@H]12)C(O)CO (some centres not stated),26.3,19.6,39.5,33.3,27.6 µM,32.7 µM,4.92,37.7 µM,25.9 µM,3.3,,,,,,,,,,
Cc1ccc(S(=O)(=O)NC(CCC(=O)NNc2ccccc2)C(=O)NNc2ccccc2)cc1 (configuration not stated),> 100,> 100,> 100,> 100,> 100 µM,> 100 µM,> 100,> 100 µM,> 100 µM,> 100,,,,,,,,,,
CC1=NN(c2cccc(Cl)c2)C2(C1=Cc1ccc(O)cc1)C(Cl)C(=O)N2c1nc2ccccc2s1 (configuration not stated),83.4,31.3,65.9,76.1,30.6 µM,38.4 µM,> 100,> 100 µM,47.9 µM,49,,,,,,,,,,

Compound,TGI (MDA-MB-435) [µM],TGI (HCT-116 colon) [µM],TGI (IGROV1 ovarian) [µM],TGI (MDA-MB-231 breast) [µM],TGI (UO-31 renal),TGI (NCI-H23 lung),TGI (CCRF-CEM leukemia) [µM],TGI (NCI-H226 lung),TGI (RXF 393 renal),TGI (NCI-H522 lung) [µM],GI50 (MDA-MB-435) [µM],GI50 (HCT-116 colon) [nM],GI50 (IGROV1 ovarian) [µM],GI50 (MDA-MB-231 breast) [µM],GI50 (UO-31 renal) [µM],GI50 (NCI-H23 lung) [µM],GI50 (CCRF-CEM leukemia) [µM],GI50 (NCI-H226 lung) [µM],GI50 (RXF 393 renal) [µM],GI50 (NCI-H522 lung) [µM]
O=C(Nc1sccc1S(=O)(=O)c1ccc(Cl)cc1)c1ccc(F)cc1F,> 100,> 100,> 100,54,47.7 µM,54.9 µM,37.8,> 100 µM,46.2 µM,51.9,,,,,,,,,,
Cc1cn(C2CCC(CO)(CF)O2)c(=O)[nH]c1=O (configuration not stated),> 100,> 100,> 100,> 100,> 100 µM,> 100 µM,> 100,> 100 µM,> 100 µM,> 100,,,,,,,,,,
CC(C)(C)OC(=O)N/C(C=O)=C\C1CCCCC1,49.5,36,46,44.2,30.2 µM,62 µM,> 100,55.1 µM,59.7 µM,> 100,,,,,,,,,,
FC(F)(F)c1cc(N(C2c3ccccc3C=Cc3ccccc32)P(Cl)Cl)cc(C(F)(F)F)c1,64.9,40.3,92.3,35,33.4 µM,97.7 µM,82.3,38.7 µM,27.1 µM,28.6,,,,,,,,,,
COC(=O)C1=C(OC(=O)/C(=C/c2ccccc2)c2ccc(OC)cc2)C(C(=O)OC)[C@@]2(O)[C@@H](C(=O)OC)[C@H](C)C[C@@H]1[C@@H]2C(=O)OC (some centres not stated),> 100,> 100,> 100,90.8,> 100 µM,> 100 µM,> 100,> 100 µM,64.7 µM,> 100,,,,,,,,,,
Cn1nc2ccc(Nc3cc(=O)[nH]c4ccc5nn(C)nc5c34)cc2n1,> 100,> 100,> 100,> 100,> 100 µM,> 100 µM,> 100,> 100 µM,> 100 µM,> 100,,,,,,,,,,
COc1ccc(-n2c(=O)c3[nH]c(=S)[nH]c3n(-c3ccc(OC)cc3)c2=S)cc1,> 100,> 100,> 100,> 100,> 100 µM,> 100 µM,> 100,> 100 µM,> 100 µM,> 100,,,,,,,,,,
COc1cc(/C=C2\CC/C(=C\c3cc(OC)c(O)c(OC)c3)C2=O)cc(OC)c1O,4.19,> 23.2,3.19,21.4,> 26.7 µM,5.72 µM,23.1,> 33.3 µM,3.74 µM,2.75,,,,,,,,,,
CC[C@@]1(O)C(=O)OCc2c1cc1n(c2=O)Cc2c-1nc1ccc(O)cc1c2[Si](C)(C)C(C)(C)C,1.65,0.147,7.41,20.6,0.0357 µM,0.0274 µM,< 0.01,0.015 µM,0.0378 µM,0.135,,,,,,,,,,
CCCC[C@@H](C)/C=C1\CN2CCC[C@H]2[C@@](C)(OCc2ccccc2)[C@@H]1O,> 50,> 50,> 50,> 50,> 16.6 µM,> 50 µM,> 50,> 50 µM,> 50 µM,> 50,,,,,,,,,,
NC(Cc1ccc(OCc2ccccc2)cc1)C(=O)NC(Cc1ccccc1)C(=O)Oc1c(Cl)c(Cl)c(Cl)c(Cl)c1Cl (configuration not stated),33.9,31.3,31.4,25.7,30.4 µM,30.6 µM,> 100,26.5 µM,28.3 µM,42.3,,,,,,,,,,
O=C1c2cc(Cc3ccccc3)c(=O)c(Cc3ccccc3)cc2C(=O)c2cc(Cc3ccccc3)c(=O)c(Cc3ccccc3)cc21,> 100,> 100,> 100,> 100,> 100 µM,> 100 µM,> 100,> 100 µM,> 100 µM,> 100,,,,,,,,,,
c1nc(NCCc2cnc[nH]2)c2[nH]cnc2n1,> 100,> 100,> 100,> 100,> 100 µM,> 100 µM,> 100,> 100 µM,> 100 µM,> 100,,,,,,,,,,
CN1CCN(Cc2c[nH]c3c2C(=O)c2c(c(O)c4ccccc4c2O)C3=O)CC1,16.4,10.5,23.4,19.9,32.4 µM,26.9 µM,18.5,36.5 µM,19 µM,33.8,3.98,1920,3.74,7.19,11.2,12.9,3.51,16.8,6.22,14.1
"Cc1c2oc3c(C)ccc(C(=O)NC4C(=O)NC(Cc5ccccc5)C(=O)N5CCCC5C(=O)N(C)CC(=O)N(C)C(C(C)C)C(=O)OC4C)c3nc-2c(C(=O)NC2C(=O)NC(Cc3ccccc3)C(=O)N3CCCC3C(=O)N(C)CC(=O)N(C)C(C(C)C)C(=O)OC2C)c(N)c1=O (configuration not stated) (I: TFP[Sar][NMeV] / II: TFP[Sar][NMeV]; ester I:1-I:C, II:1-II:C; linker I:N-II:N via Actinocin(9to1); configuration not given here)",0.0222,0.00736,0.0165,0.255,0.468 µM and 0.31 µM,0.0202 µM and 0.0398 µM,0.00791,0.0214 µM and 0.0312 µM,0.00952 µM and 0.0394 µM,0.0217,,,,,0.0502,,,,< 0.001,
C[C@@H]1[C@@H](C)C(c2ccccc2)O[Si]1(C(C)(C)C)C(C)(C)C (some centres not stated),76.3,28.8,31,31.3,31 µM,30.3 µM,46.2,40.9 µM,31 µM,28.7,,,,,,,,,,
C[C@]12CC[C@H]3[C@@H](CCC4=CC(=O)C=C[C@@]43OC(=O)C(F)(F)F)[C@@H]1CCC2=O,> 100,> 56,> 100,> 100,> 100 µM,> 100 µM,> 100,> 100 µM,> 100 µM,> 100,,,,,,,,,,
CC(C)(C)OC(=O)[C@@H]1CCC(=O)N1C1(c2ccccc2)c2ccccc2-c2ccccc21,> 100,> 100,> 100,86.1,> 100 µM,> 100 µM,43.7,> 100 µM,32.2 µM,94,,,,,,,,,,
